Converted amounts (≈) assume the structure as drawn.
Tests used:
Assay type in all cases: functional
[1] = system: Micrococcus luteus; test: Antibacterial activity against Micrococcus luteus ATCC 9341 assessed as growth inhibition by M7-A6 method
[2] = system: Micrococcus luteus; test: Antibacterial activity against Micrococcus luteus ATCC 10240 assessed as growth inhibition by M7-A6 method
[3] = system: Bacillus subtilis; test: Antibacterial activity against Bacillus subtilis ATCC 6633 assessed as growth inhibition by M7-A6 method
[4] = system: Bacillus cereus; test: Antibacterial activity against Bacillus cereus ATCC 11778 assessed as growth inhibition by M7-A6 method
[5] = system: Staphylococcus aureus; test: Antibacterial activity against Staphylococcus aureus ATCC 6538 assessed as growth inhibition by M7-A6 method
[6] = system: Staphylococcus aureus; test: Antibacterial activity against Staphylococcus aureus ATCC 6538P assessed as growth inhibition by M7-A6 method
[7] = system: Escherichia coli; test: Antibacterial activity against Escherichia coli ATCC 8739 assessed as growth inhibition by M7-A6 method
[8] = system: Escherichia coli; test: Antibacterial activity against Escherichia coli ATCC 10536 assessed as growth inhibition by M7-A6 method
[9] = system: Pseudomonas aeruginosa; test: Antibacterial activity against Pseudomonas aeruginosa ATCC 15442 assessed as growth inhibition by M7-A6 method
[10] = system: Pseudomonas aeruginosa; test: Antibacterial activity against Pseudomonas aeruginosa ATCC 9027 assessed as growth inhibition by M7-A6 method
[11] = system: Candida albicans; test: Antifungal activity against Candida albicans ATCC 10231 assessed as growth inhibition by M7-A6 method
[12] = system: Candida albicans; test: Antifungal activity against Candida albicans ATCC 2091 assessed as growth inhibition by M7-A6 method
[13] = system: Candida parapsilosis; test: Antifungal activity against Candida parapsilosis ATCC 22019 assessed as growth inhibition by M7-A6 method; conditions: Lodderomyces parapsilosis
[14] = system: Aspergillus brasiliensis; test: Antifungal activity against Aspergillus brasiliensis ATCC 16404 assessed as growth inhibition by M7-A6 method
[15] = Antifungal activity against Zygosaccharomyces rouxii ATCC 28253 assessed as growth inhibition by M7-A6 method
[16] = system: Saccharomyces cerevisiae; test: Antifungal activity against Saccharomyces cerevisiae ATCC 9763 assessed as growth inhibition by M7-A6 method
[17] = system: Staphylococcus aureus; test: Antibacterial activity against erythromycin, amikacin, clindamycin, ciprofloxacin, methicillin-resistant Staphylococcus aureus 15K/11 assessed as growth inhibition by M7-A6 method
[18] = system: Staphylococcus aureus; test: Antibacterial activity against penicillin, erythromycin, amikacin, clindamycin, ciprofloxacin, methicillin-resistant Staphylococcus aureus 495/11 assessed as growth inhibition by M7-A6 method
[19] = system: Staphylococcus aureus; test: Antibacterial activity against penicillin, erythromycin, amikacin, clindamycin, ciprofloxacin, methicillin-resistant Staphylococcus aureus 572/12 assessed as growth inhibition by M7-A6 method
[20] = system: Staphylococcus aureus; test: Antibacterial activity against penicillin, erythromycin, clindamycin, ciprofloxacin, methicillin-resistant Staphylococcus aureus 19K/11 assessed as growth inhibition by M7-A6 method
[21] = system: Staphylococcus aureus; test: Antibacterial activity against penicillin, erythromycin, amikacin, clindamycin, ciprofloxacin, methicillin-resistant Staphylococcus aureus 573/12 assessed as growth inhibition by M7-A6 method

Row | Compound | MIC [1] [µM] | MIC [2] [µM] | MIC [3] [µM] | MIC [4] [µM] | MIC [5] [µM] | MIC [6] [µM] | MIC [7] [µM] | MIC [8] [µM] | MIC [9] [µM] | MIC [10] [µM] | MIC [11] [µM] | MIC [12] [µM] | MIC [13] [µM] | MIC [14] [µM] | MIC [15] [µM] | MIC [16] [µM] | also measured
1 | N=C(N)c1ccc(OCCSCCOc2ccc(C(=N)N)cc2)cc1 | 4.6 (≈ 1.65 µg/mL) | 23 (≈ 8.24 µg/mL) | 140 (≈ 50.2 µg/mL) | 69.5 (≈ 24.9 µg/mL) | 69.5 (≈ 24.9 µg/mL) | 140 (≈ 50.2 µg/mL) | 140 (≈ 50.2 µg/mL) | 580 (≈ 208 µg/mL) | 2320 (≈ 832 µg/mL) | 1740 (≈ 624 µg/mL) | 140 (≈ 50.2 µg/mL) | 140 (≈ 50.2 µg/mL) | 23 (≈ 8.24 µg/mL) | 70 (≈ 25.1 µg/mL) | 70 (≈ 25.1 µg/mL) | 290 (≈ 104 µg/mL) | MIC [17]: 1160 µM (≈ 416 µg/mL); MIC [18]: 2320 µM (≈ 832 µg/mL); MIC [19]: 290 µM (≈ 104 µg/mL); MIC [20]: 140 µM (≈ 50.2 µg/mL); MIC [21]: 290 µM (≈ 104 µg/mL)
2 | COc1cc(C(=N)N)ccc1OCCOCCOc1ccc(C(=N)N)cc1OC | 2100 (≈ 845 µg/mL) | 520 (≈ 209 µg/mL) | 2100 (≈ 845 µg/mL) | 1050 (≈ 423 µg/mL) | 260 (≈ 105 µg/mL) | 520 (≈ 209 µg/mL) | 2100 (≈ 845 µg/mL) | 10500 (≈ 4230 µg/mL) | > 21000 | > 21000 | 10500 (≈ 4230 µg/mL) | 10500 (≈ 4230 µg/mL) | 5260 (≈ 2120 µg/mL) | 21000 (≈ 8470 µg/mL) | – | 10500 (≈ 4230 µg/mL) | –
3 | COc1cc(C(=N)N)cc(OC)c1OCCN(CCOc1c(OC)cc(C(=N)N)cc1OC)S(=O)(=O)c1ccc(N)cc1 | 38 (≈ 23.4 µg/mL) | 64 (≈ 39.5 µg/mL) | 320 (≈ 197 µg/mL) | 320 (≈ 197 µg/mL) | 320 (≈ 197 µg/mL) | 320 (≈ 197 µg/mL) | 6410 (≈ 3950 µg/mL) | 6410 (≈ 3950 µg/mL) | 6410 (≈ 3950 µg/mL) | 6410 (≈ 3950 µg/mL) | > 12800 | > 12800 | > 12800 | > 12800 | – | > 12800 | –
4 | COc1cc(C(=N)N)cc(OC)c1OCCCCCOc1c(OC)cc(C(=N)N)cc1OC | 3.5 (≈ 1.61 µg/mL) | 18 (≈ 8.29 µg/mL) | 89 (≈ 41 µg/mL) | 110 (≈ 50.7 µg/mL) | 54 (≈ 24.9 µg/mL) | 54 (≈ 24.9 µg/mL) | 220 (≈ 101 µg/mL) | 220 (≈ 101 µg/mL) | 4460 (≈ 2050 µg/mL) | 1780 (≈ 820 µg/mL) | 890 (≈ 410 µg/mL) | 1780 (≈ 820 µg/mL) | 890 (≈ 410 µg/mL) | 8920 (≈ 4110 µg/mL) | 110 (≈ 50.7 µg/mL) | 4460 (≈ 2050 µg/mL) | –

The remaining compounds from weak to strong by MIC [1], led by results:

Row | MIC [1] [µM] | MIC [2] [µM] | MIC [3] [µM] | MIC [4] [µM] | MIC [5] [µM] | MIC [6] [µM] | MIC [7] [µM] | MIC [8] [µM] | MIC [9] [µM] | MIC [10] [µM] | MIC [11] [µM] | MIC [12] [µM] | MIC [13] [µM] | MIC [14] [µM] | MIC [15] [µM] | MIC [16] [µM] | Compound | also measured
5 | 72 (≈ 43.1 µg/mL) | 89 (≈ 53.3 µg/mL) | 720 (≈ 431 µg/mL) | 72 (≈ 43.1 µg/mL) | 140 (≈ 83.8 µg/mL) | 360 (≈ 216 µg/mL) | 3580 (≈ 2140 µg/mL) | 3580 (≈ 2140 µg/mL) | 7160 (≈ 4290 µg/mL) | 7160 (≈ 4290 µg/mL) | 180 (≈ 108 µg/mL) | 1430 (≈ 856 µg/mL) | 360 (≈ 216 µg/mL) | 7160 (≈ 4290 µg/mL) | 1430 (≈ 856 µg/mL) | 1430 (≈ 856 µg/mL) | COc1cc(C(=N)N)ccc1OCCN(CCOc1ccc(C(=N)N)cc1OC)S(=O)(=O)c1ccc(NC(C)=O)cc1 | –
6 | 15 (≈ 8.12 µg/mL) | 42 (≈ 22.7 µg/mL) | 42 (≈ 22.7 µg/mL) | 42 (≈ 22.7 µg/mL) | 42 (≈ 22.7 µg/mL) | 42 (≈ 22.7 µg/mL) | 370 (≈ 200 µg/mL) | 740 (≈ 401 µg/mL) | 7380 (≈ 4000 µg/mL) | 7380 (≈ 4000 µg/mL) | 92 (≈ 49.8 µg/mL) | 370 (≈ 200 µg/mL) | 370 (≈ 200 µg/mL) | 7380 (≈ 4000 µg/mL) | 180 (≈ 97.5 µg/mL) | 180 (≈ 97.5 µg/mL) | COc1cc(C(=N)N)ccc1OCCN(CCOc1ccc(C(=N)N)cc1OC)S(=O)(=O)c1ccccc1 | –
7 | 4.4 (≈ 1.51 µg/mL) | 11 (≈ 3.77 µg/mL) | 550 (≈ 188 µg/mL) | 550 (≈ 188 µg/mL) | 550 (≈ 188 µg/mL) | 550 (≈ 188 µg/mL) | 550 (≈ 188 µg/mL) | 550 (≈ 188 µg/mL) | 11100 (≈ 3790 µg/mL) | 11100 (≈ 3790 µg/mL) | > 22200 | > 22200 | 66 (≈ 22.6 µg/mL) | > 22200 | – | 11100 (≈ 3790 µg/mL) | N=C(N)c1ccc(OCCOCCOc2ccc(C(=N)N)cc2)cc1 | –
8 | 3.9 (≈ 1.43 µg/mL) | 19.5 (≈ 7.15 µg/mL) | 98 (≈ 35.9 µg/mL) | 59 (≈ 21.6 µg/mL) | 59 (≈ 21.6 µg/mL) | 120 (≈ 44 µg/mL) | 9780 (≈ 3580 µg/mL) | 9780 (≈ 3580 µg/mL) | > 19600 | > 19600 | 120 (≈ 44 µg/mL) | 120 (≈ 44 µg/mL) | 20 (≈ 7.33 µg/mL) | 9780 (≈ 3580 µg/mL) | 120 (≈ 44 µg/mL) | 240 (≈ 88 µg/mL) | CN(CCCCCN(C)c1ccc(C(=N)N)cc1)c1ccc(C(=N)N)cc1 | –
